Experimental data as given in ChEMBL document CHEMBL5393453, “Compositions and methods of using the same for treatment of neurodegenerative and mitochondrial disease” (2021).
The source made the active and inactive calls. The calls are words filed in the database; no cut-off is given here.

Legend:
[1] = Cytotoxicity against human HeLa cells expressing YFP parkin treated with FCCP/ oligomycin assessed as highest safety dose by DAPI staining analysis; assay type: toxicity, cell-based; conditions: read-out: Activity
[2] = Cytotoxicity against human HeLa cells expressing YFP parkin in presence of FCCP/oligomycin at 25 uM assessed as maximum cell death by DAPI staining analysis relative to control; assay type: toxicity, cell-based
[3] = Cytotoxicity against human HeLa cells expressing YFP parkin assessed as highest safety dose by DAPI staining analysis; assay type: toxicity, cell-based; conditions: read-out: Activity
[4] = Cmax in C57BL/6 mouse at 25 mg/kg, po administered as single dose by mass spectrometry; assay type: ADME, organism-based; design: dose 25 mg/kg, route po; conditions: in vivo
[5] = AUClast in C57BL/6 mouse at 50 mg/kg, po administered as single dose by mass spectrometry; assay type: ADME, organism-based; design: dose 50 mg/kg, route po; conditions: in vivo
Mus musculus [6] = assay: Protection against kidney fibrosis in cisplatin-challenged C57BL/6 mouse assessed as rescue of KIM-1 at 6.25 to 50 mg/kg, po administered once a day for 3 days; assay type: functional, organism-based; conditions: dose 6.25-50 mg/kg, time 3.0 day
[7] = Cmax in C57BL/6 mouse at 10 mg/kg, po administered as single dose by mass spectrometry; assay type: ADME, organism-based; design: dose 10 mg/kg, route po; conditions: in vivo
Mus musculus [8] = assay: Protection against kidney fibrosis in cisplatin-challenged C57BL/6 mouse assessed as reduction in Gdf15 expression at 6.25 to 50 mg/kg, po administered once a day for 3 days; assay type: functional, organism-based; conditions: dose 6.25-50 mg/kg, time 3.0 day
[9] = Cmax in C57BL/6 mouse at 50 mg/kg, po administered as single dose by mass spectrometry; assay type: ADME, organism-based; design: dose 50 mg/kg, route po; conditions: in vivo
[10] = tested on: Primary hippocampal neuron; assay: Protection against PFFs induced alpha-synuclein fibril formation in C57BL/6 mouse derived primary hippocampal neurons assessed as reduction in phosphorylated S129 alpha-synuclein (250-12) level at 0.1 to 25 uM measured after 6 days; assay type: functional, cell-based; conditions: dose 0.1-25 µM, time 6.0 day
Mus musculus [11] = assay: Protection against PFFs induced alpha-synuclein fibril formation in C57BL/6 mouse assessed as reduction in phosphorylated S129 alpha-synuclein monomer level at 6.25 to 50 mg/kg, po administered twice daily; assay type: functional, organism-based; conditions: dose 6.25-50 mg/kg
[12] = AUClast in C57BL/6 mouse at 100 mg/kg, po administered as single dose by mass spectrometry; assay type: ADME, organism-based; design: dose 100 mg/kg, route po; conditions: in vivo
Mus musculus [13] = assay: Protection against PFFs induced alpha-synuclein fibril formation in C57BL/6 mouse assessed as reduction in phosphorylated S129 alpha-synuclein (250-12) level at 6.25 to 50 mg/kg, po administered twice daily; assay type: functional, organism-based; conditions: dose 6.25-50 mg/kg
Mus musculus [14] = assay: Protection against kidney fibrosis in cisplatin-challenged C57BL/6 mouse assessed as reduction in Tnfrsf12a expression at 6.25 to 50 mg/kg, po administered once a day for 3 days; assay type: functional, organism-based; conditions: dose 6.25-50 mg/kg, time 3.0 day
[15] = tested on: Primary hippocampal neuron; assay: Protection against PFFs induced alpha-synuclein fibril formation in C57BL/6 mouse derived primary hippocampal neurons assessed as reduction in phosphorylated S129 alpha-synuclein level at 0.1 to 25 uM measured after 6 days; assay type: functional, cell-based; conditions: dose 0.1-25 µM, time 6.0 day
[16] = AUClast in C57BL/6 mouse at 25 mg/kg, po administered as single dose by mass spectrometry; assay type: ADME, organism-based; design: dose 25 mg/kg, route po; conditions: in vivo
[17] = Cmax in C57BL/6 mouse at 100 mg/kg, po administered as single dose by mass spectrometry; assay type: ADME, organism-based; design: dose 100 mg/kg, route po; conditions: in vivo
Mus musculus [18] = assay: Protection against PFFs induced alpha-synuclein fibril formation in C57BL/6 mouse assessed as reduction in phosphorylated S129 alpha-synuclein level at 6.25 to 50 mg/kg, po administered twice daily; assay type: functional, organism-based; conditions: dose 6.25-50 mg/kg
HeLa [19] = assay: Induction of mitophagy in human HeLa YFP-Parkin cells treated with FCCP/oligomycin assessed as cells with parkin recruited to mitochondria at 60 mins by FACS analysis; assay type: functional, cell-based; conditions: 1 h
HeLa [20] = assay: Induction of mitophagy in human HeLa Mito-Keima cells treated with FCCP/oligomycin measured by FACS analysis; assay type: functional, cell-based
[21] = tested on: Primary hippocampal neuron; assay: Protection against PFFs induced alpha-synuclein fibril formation in C57BL/6 mouse derived primary hippocampal neurons assessed as reduction in phosphorylated S129 alpha-synuclein monomer level at 0.1 to 25 uM measured after 6 days; assay type: functional, cell-based; conditions: dose 0.1-25 µM, time 6.0 day
[22] = AUClast in C57BL/6 mouse at 10 mg/kg, po administered as single dose by mass spectrometry; assay type: ADME, organism-based; design: dose 10 mg/kg, route po; conditions: in vivo
HeLa [23] = assay: Induction of mitophagy in human HeLa Mito-Keima/YFP-Parkin cells treated with FCCP/oligomycin measured by FACS analysis; assay type: functional, cell-based
[24] = tested on: Primary hippocampal neuron; assay: Protection against PFFs induced alpha-synuclein fibril formation in C57BL/6 mouse derived primary hippocampal neurons assessed as reduction in phosphorylated S129 alpha-synuclein level at 1.56 to 12.5 uM measured after 6 days; assay type: functional, cell-based; conditions: dose 1.56-12.5 µM, time 6.0 day
HeLa [25] = assay: Induction of mitophagy in human HeLa Mito-Keima/YFP-Parkin cells treated with FCCP/oligomycin measured by FACS analysis relative to DMSO; assay type: functional
[26] = Therapy index in human HeLa Mito-Keima/YFP-Parkin cells treated with FCCP/oligomycin assessed as mitophagy safety margin by DAPI staining analysis; assay type: toxicity, cell-based; conditions: read-out: TI

For COC1CN([C@@H]2COc3ccccc3[C@H]2Nc2ncnc3[nH]c(C4CC4)cc23)C1, which MNTC [1] is on record?
The MNTC was 25 µM.

What about the Emax at 25 µM [2] of the same molecule?
Its Emax at 25 µM is 22.5%.

And the MNTC [3]?
The MNTC was 25 µM.

With c1ccc2c(c1)OC[C@H](N1CCOCC1)[C@H]2Nc1ncnc2[nH]c(C3CC3)cc12 as the molecule, how does the Cmax [4] read?
The Cmax was 1.15 µM.

What about the AUC(0-t) [5] of the same molecule?
Its AUC(0-t) is 17.3 µM·h.

What about the Activity (Mus musculus [6]) of the same molecule?
Its Activity is “Active”.

What about the Cmax [7] of the same molecule?
Its Cmax is 0.35 µM.

And the MNTC [1]?
The MNTC was 25 µM.

What about the Activity (Mus musculus [8]) of the same molecule?
The Activity was “Active”.

What about the Cmax [9] of the same molecule?
Its Cmax is 9.21 µM.

And the Activity [10]?
The Activity was “Active”.

What about the Activity (Mus musculus [11]) of the same molecule?
Its Activity is “Active”.

What about the AUC(0-t) [12] of the same molecule?
The AUC(0-t) was 85.6 µM·h.

What about the Activity (Mus musculus [13]) of the same molecule?
Its Activity is “Active”.

What about the Activity (Mus musculus [14]) of the same molecule?
The Activity was “Active”.

What about the Activity [15] of the same molecule?
The Activity was “Active”.

And the AUC(0-t) [16]?
Its AUC(0-t) is 1.91 µM·h.

And the Cmax [17]?
Its Cmax is 19.4 µM.

What about the Activity (Mus musculus [18]) of the same molecule?
The Activity was “Active”.

And the MNTC [3]?
Its MNTC is 25 µM.

And the EC50 (HeLa [19])?
The EC50 was 1150 nM.

And the EC50 (HeLa [20])?
The EC50 was 153 nM.

And the Activity [21]?
Its Activity is “Active”.

And the AUC(0-t) [22]?
Its AUC(0-t) is 0.51 µM·h.

What does the source list for C[C@H]1CN([C@H]2CCc3ccccc3[C@@H]2Nc2ncnc3[nH]c(C(F)(F)F)cc23)CCO1 (single isomer, unassigned)?
MNTC [1]: 9.1 µM; Activity [10]: Active; Activity [15]: Active; MNTC [3]: 25 µM; Activity [21]: Active

What does the source list for COC1CN([C@@H]2CCc3ccccc3[C@H]2Nc2ncnc3[nH]c(C(F)(F)F)cc23)C1?
EC50 (HeLa [23]): 28800 nM; MNTC [3]: 25 µM

For FC(F)(F)c1cc2c(NC3CCCc4ccccc43)ncnc2[nH]1 (single isomer, unassigned), which AUC(0-t) [5] is on record?
Its AUC(0-t) is 30.5 µM·h.

And the Cmax [7]?
Its Cmax is 0.49 µM.

What about the Cmax [9] of the same molecule?
Its Cmax is 6.98 µM.

And the Activity [24]?
Its Activity is “Active”.

And the “fold change (FC)” value (HeLa [25])?
Its value is 4.43.

What about the EC50 (HeLa [19]) of the same molecule?
Its EC50 is 1740 nM.

And the EC50 (HeLa [20])?
The EC50 was 371 nM.

What about the AUC(0-t) [22] of the same molecule?
The AUC(0-t) was 1.79 µM·h.

With FC(F)(F)c1cc2c(N[C@H]3c4ccccc4CC[C@@H]3N3CC4(COC4)C3)ncnc2[nH]1 as the molecule, how does the EC50 (HeLa [23]) read?
Its EC50 is 300 nM.

Which selectivity ratio [26] does the source give for FC(F)(F)c1cc2c(N[C@@H]3c4ccccc4CC[C@@H]3N3CCOCC3)ncnc2[nH]1 here?
The selectivity ratio was < 10.

What about the MNTC [3] of the same molecule?
The MNTC was 16.7 µM.

Which results are given for FC(F)(F)c1cc2c(N[C@H]3c4ccccc4CC[C@@H]3N3CCOCC3)ncnc2[nH]1 (single isomer, unassigned)?
selectivity ratio [26]: > 30; Activity [24]: Active; fold change (FC) (HeLa [25]): 9.78

Which MNTC [1] does the source give for COC1CN([C@H]2CCc3ccccc3[C@@H]2Nc2ncnc3[nH]c(C(F)(F)F)cc23)C1 here?
Its MNTC is 8.3 µM.

And the Activity [10]?
The Activity was “Active”.

What about the Activity [15] of the same molecule?
The Activity was “Active”.

What about the MNTC [3] of the same molecule?
The MNTC was 8.3 µM.

And the Activity [21]?
The Activity was “Active”.

Which results are given for COC1CN([C@@H]2COc3ccccc3[C@H]2Nc2ncnc3[nH]c(C(F)(F)F)cc23)C1?
MNTC [1]: 21.4 µM; Activity [10]: Active; Activity [15]: Active; MNTC [3]: 25 µM; Activity [21]: Active

With c1ccc2c(c1)OC[C@H](C1CCOCC1)[C@H]2Nc1ncnc2[nH]c(C3CC3)cc12 (single isomer, unassigned) as the molecule, how does the MNTC [1] read?
The MNTC was 21.5 µM.

What about the Activity [10] of the same molecule?
The Activity was “Active”.

And the Activity [15]?
Its Activity is “Active”.

And the MNTC [3]?
The MNTC was 25 µM.

And the Activity [21]?
Its Activity is “Active”.
